The target of one series is T1, UGT1A1 (Homo sapiens, UniProt P22309).
T1 sequence (P22309 26-533): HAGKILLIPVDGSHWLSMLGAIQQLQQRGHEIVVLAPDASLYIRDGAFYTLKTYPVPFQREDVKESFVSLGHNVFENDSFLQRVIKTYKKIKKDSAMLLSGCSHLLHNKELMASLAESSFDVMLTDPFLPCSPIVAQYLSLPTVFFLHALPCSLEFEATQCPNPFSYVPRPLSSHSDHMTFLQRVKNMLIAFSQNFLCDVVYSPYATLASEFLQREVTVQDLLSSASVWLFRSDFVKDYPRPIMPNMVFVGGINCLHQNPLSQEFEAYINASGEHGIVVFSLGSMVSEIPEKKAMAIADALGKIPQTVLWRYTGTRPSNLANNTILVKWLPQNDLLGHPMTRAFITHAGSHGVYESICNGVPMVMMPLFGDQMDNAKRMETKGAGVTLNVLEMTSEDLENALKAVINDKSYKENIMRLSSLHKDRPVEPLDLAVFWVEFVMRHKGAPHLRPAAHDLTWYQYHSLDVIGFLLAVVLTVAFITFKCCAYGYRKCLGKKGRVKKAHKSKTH
Set-up: method as in PMID 29470958. As to conditions: read-out: IC50, UGT1A1, previously reported value; cited from earlier work.

A further series has as its target T2, UGT1A9 (Homo sapiens, UniProt O60656).
T2 construct: tissue XenoTech XTreme 200; host or cells: pooled human liver microsomes
Briefly: Inhibition of UGT1A9 (mycophenolic acid glucuronidation) in human liver microsomes. The format is in vitro ADME. As to conditions: substrate mycophenolic acid; HLMs; average ± standard error. On the procedure: (§1) The ability of selamariscina A to inhibit the metabolism of six UGT enzyme probe substrates was evaluated using previously developed methods with minor modifications. The microsomal incubation was performed by dividing the non-interactive substrate cocktail sets (set A included SN-38 for UGT1A1, CDCA for UGT1A3 and TFP for UGT1A4 while set B included N-SER for UGT1A6, MPA for UGT1A9 and NX for UGT2B7) (Table 2). In brief, HLMs (0.25 mg/mL) were activated by incubation in the presence of alamethicin (25 µg/mL) for 15 min on ice. After the addition of UGT probe substrates and inhibitor (0, 0.5, 2, 5, 20 and 50 μM), the incubation mixtures were pre-incubated at 37 °C for 5 min. […] After centrifugation at 18,000 g (5 min, 4 °C), aliquots of supernatants were analyzed by LC–MS/MS. […]
(§2) All metabolites and the IS were separated on a Kinetex XB-C18 column (100 × 2.10 mm, 2.6 μm, 100 Å; Phenomenex, Torrance, CA, USA) and analyzed using a Shimadzu LCMS 8060 triple-quadrupole mass spectrometer coupled with a Nexera X2 ultra high-performance liquid chromatography system (Shimadzu, Kyoto, Japan) equipped with an electrospray ionization interface. […] Quantitation was conducted in selected reaction monitoring (SRM) modes with the precursor-to-product ion transition for each metabolite (Table 1 and Table 2).
(§3) We analyzed the data with Shimadzu LabSolution LC–MS software. […]
Background: Microsomes from liver hold many membrane-bound enzymes, among them those of drug oxidation.

In another series the target is T3, UGT2B7 (Homo sapiens, UniProt P16662).
T3 construct: tissue XenoTech XTreme 200; host or cells: pooled human liver microsomes
T3 sequence (P16662 24-529): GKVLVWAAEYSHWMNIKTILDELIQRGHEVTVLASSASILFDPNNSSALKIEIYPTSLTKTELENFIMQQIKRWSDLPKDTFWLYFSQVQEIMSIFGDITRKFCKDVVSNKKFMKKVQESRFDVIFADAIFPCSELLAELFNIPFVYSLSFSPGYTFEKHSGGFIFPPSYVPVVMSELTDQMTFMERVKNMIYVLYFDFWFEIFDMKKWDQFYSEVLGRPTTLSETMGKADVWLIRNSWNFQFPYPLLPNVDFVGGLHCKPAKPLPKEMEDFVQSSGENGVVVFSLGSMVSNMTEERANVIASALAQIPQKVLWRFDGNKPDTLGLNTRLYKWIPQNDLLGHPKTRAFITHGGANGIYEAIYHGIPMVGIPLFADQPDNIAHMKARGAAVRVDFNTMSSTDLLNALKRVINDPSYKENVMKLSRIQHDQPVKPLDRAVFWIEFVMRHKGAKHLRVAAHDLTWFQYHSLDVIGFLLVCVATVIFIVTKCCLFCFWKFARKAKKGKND
Briefly: Inhibition of UGT2B7 (naloxone glucuronidation) in human liver microsomes. The format is in vitro ADME. As to conditions: substrate naloxone; HLMs. On the procedure: as §1, §2, §3

For a further series, the target named is CYP2C9 (Homo sapiens, UniProt P11712). Briefly: Inhibition of CYP2C9-catalyzed tolbutamide 4-hydroxylation in human liver microsomes. As to conditions: HLMs. It is filed as in vitro ADME. Set-up: incubation mixtures containing pooled human liver microsomes (HLMs, XTreme 200, XenoTech); tissue XenoTech XTreme 200; host or cells: pooled human liver microsomes. An excerpt:
We used HLMs to determine the mechanisms and constants (Ki values) for […] A inhibition of CYP1A2, CYP2B6, CYP2C8, CYP2C9 and CYP3A. […] The substrates were used at concentrations approximately near to their respective Km values. […] The other conditions were the same as in the cytochrome P450 inhibition study. […] Phenomenex, Torrance, CA, USA) and analyzed using a Shimadzu LCMS 8060 triple-quadrupole mass spectrometer coupled with a Nexera X2 ultra high-performance liquid chromatography system (Shimadzu, Kyoto, Japan) equipped with an electrospray ionization interface. The mobile phase consisted of 0.1% formic acid in water (A) and 0.1% formic acid in acetonitrile (B). […] The flow rate was 0.2 mL/min. Electrospray ionization was performed in positive-ion mode at 4000 V or in negative-ion mode at -3500 V. The optimum operating conditions were determined as follows: vaporizer temperature, 300 °C; capillary temperature, 350 °C; collision gas (argon) pressure, 1.5 mTorr. Quantitation was conducted in selected reaction monitoring (SRM) modes with the precursor-to-product ion transition for each metabolite (Table 1 and Table 2). We analyzed the data with Shimadzu LabSolution LC-MS software. The IC50 values were calculated by WinNonlin software (Pharsight, Mountain View, CA, USA). […]

Some results are limits rather than exact numbers.

CYP2C9, sequence (P11712 whole entry): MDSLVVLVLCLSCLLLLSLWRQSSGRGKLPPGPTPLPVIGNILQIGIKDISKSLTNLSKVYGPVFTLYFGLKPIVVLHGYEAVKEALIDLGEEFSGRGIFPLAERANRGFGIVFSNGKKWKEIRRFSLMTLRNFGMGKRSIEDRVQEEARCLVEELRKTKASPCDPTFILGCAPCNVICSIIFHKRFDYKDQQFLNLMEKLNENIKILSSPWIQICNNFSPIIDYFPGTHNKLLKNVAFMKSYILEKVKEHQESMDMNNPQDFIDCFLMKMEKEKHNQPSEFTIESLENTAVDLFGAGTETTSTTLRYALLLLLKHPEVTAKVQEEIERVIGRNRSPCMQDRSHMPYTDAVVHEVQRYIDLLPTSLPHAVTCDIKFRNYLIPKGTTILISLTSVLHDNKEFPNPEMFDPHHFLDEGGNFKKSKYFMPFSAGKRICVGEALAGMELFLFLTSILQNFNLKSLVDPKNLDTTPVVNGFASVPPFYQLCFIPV
T2 sequence (O60656 26-530): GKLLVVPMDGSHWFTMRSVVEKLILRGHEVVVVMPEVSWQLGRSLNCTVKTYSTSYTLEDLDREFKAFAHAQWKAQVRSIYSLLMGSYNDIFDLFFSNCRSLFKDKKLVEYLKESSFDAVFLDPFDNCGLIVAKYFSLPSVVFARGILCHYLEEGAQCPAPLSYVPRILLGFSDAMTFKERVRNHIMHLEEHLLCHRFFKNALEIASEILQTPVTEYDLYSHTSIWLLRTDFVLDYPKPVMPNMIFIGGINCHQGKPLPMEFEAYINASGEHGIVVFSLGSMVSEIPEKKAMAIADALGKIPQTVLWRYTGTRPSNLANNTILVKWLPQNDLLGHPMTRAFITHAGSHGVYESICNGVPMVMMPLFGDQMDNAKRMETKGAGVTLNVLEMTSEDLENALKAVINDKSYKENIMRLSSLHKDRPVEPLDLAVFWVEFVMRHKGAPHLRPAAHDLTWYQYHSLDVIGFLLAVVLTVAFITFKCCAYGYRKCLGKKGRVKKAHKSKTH

For the molecule `O=c1cc(-c2ccc(O)c(-c3c(O)cc(O)c4c(=O)cc(-c5ccc(O)cc5)oc34)c2)oc2cc(O)cc(O)c12` [amentoflavone], the IC50 at UGT1A1 was 780 nM.
Turning to `O=C1CC(c2cc(-c3c(O)ccc4c(=O)cc(-c5ccc(O)cc5)oc34)c(O)cc2O)Oc2cc(O)cc(O)c21` (centres unmarked) [selamariscina A], the IC50 at UGT1A9 is 40400 ± 11100 nM; at UGT2B7 it was above 50000 nM. Moreover, on CYP2C9, the “Mode of Inhibition, CYP2C9 tolbutamide” value was “Noncompetitive”. For the same molecule, on CYP2C9 (average ± standard error, triplicate), the Ki worked out at 65 ± 10 nM.

In general, IC50 refers to the concentration needed to halve the response being measured. What is called Ki is the equilibrium dissociation constant of an inhibitor or competing ligand from its target.
